In publication PMC4673972 (Bioinformatics, 2015):

How the values were obtained:
[1] = molecular target: Bcl-2 (B-cell lymphoma 2) (Homo sapiens, UniProt P10415); assay: intrinsic tryptophan fluorescence quenching; type: binding
[2] = molecular target: B-cell lymphoma 2 (Bcl-2) (UniProt P10415); assay: fluorescence polarisation
B-cell lymphoma 2 (Bcl-2), sequence (P10415 whole entry): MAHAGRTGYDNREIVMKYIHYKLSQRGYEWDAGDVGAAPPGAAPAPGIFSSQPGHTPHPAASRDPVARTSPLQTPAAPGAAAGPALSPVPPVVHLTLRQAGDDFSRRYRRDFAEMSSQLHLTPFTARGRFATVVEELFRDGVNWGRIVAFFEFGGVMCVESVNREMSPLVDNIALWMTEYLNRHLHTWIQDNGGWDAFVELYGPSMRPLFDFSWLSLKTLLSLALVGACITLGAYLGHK

Bcl-2 (B-cell lymphoma 2), sequence (P10415 whole entry): as above

Kd [1] | Kd [2] | Compound
380 ± 80 µM |  | CC(C)(COP(=O)(O)OP(=O)(O)OC[C@H]1O[C@@H](n2cnc3c(N)ncnc32)[C@H](O)[C@@H]1OP(=O)(O)O)[C@@H](O)C(=O)NCCC(=O)NCCS [CoA]
 | 0.128 µM | fluorescent-labeled Bax-BH3 peptide
